Data on six compounds can be found in patent US4053478A, “2,5-Di-substituted 4-oxazolealkanoic acids and esters” (Yoshitomi Pharmaceutical Industries, Ltd., priority 1974, dated 1977).

Data set [1] deals with bleeding time induced by platelet thrombi. Description: Anti-thrombotic action: bleeding time induced by platelet thrombi, tail vein puncture (Table 4). It counts as in vivo. The settings on record: oral, one hour after administration, male mice. How it is done:
The bleeding time induced by platelet thrombi was compared with that of the control group, and the rate of prolongation was calculated as an index of anti-thrombotic activity.

Data set [2] deals with serum cholesterol and triglyceride levels. In words: Hypolipidemic action: male rats with normal serum lipid (Table 1). In kind it is in vivo, Wistar strain male rats. The following applies: 100 mg/kg/day, oral (gastric tube), 5 days, vs control. The method, then:
i. Male rats with normal serum lipid (Table 1)
Each test group was composed of more than 5 rats. The test compound was orally given by a gastric tube. Serum cholesterol and triglyceride levels were measured by the standard methods using an autoanalyzer (Technicon Inc.). The levels in the control (placebo) group were considered as 100% and the reduction (%) in the test group was calculated.

For data set [3], the system named is serum cholesterol level. Description: Hypolipidemic action: dietary hyperlipidemia in male mice (Table 2). In kind it is in vivo, dd-strain male mice. The following applies: 5 days. The method, then:
ii. Dietary hyperlipidemia in male mice (Table 2)
dd-Strain male mice weighing 20-25 g. were used. Each group was composed of 8 mice. Animals were fed with NMF food (Oriental Yeast Co., Tokyo) containing 1% of cholesterol, 0.2% of cholic acid and 5% of olive oil, and the serum cholesterol level was measured by the use of an autoanalyzer after 5 days administration of the test compound. The levels in the test group was compared with that in the control group given the same diet.

The nature of data set [4]: Acute toxicity, mouse (Table 5). The settings on record: in vivo, oral, lethality within two days, read-out: LD50 per os, Mouse. The method, then:
(§1) The test compound was orally administered to groups each of 5 male mice and rats respectively. The LD50 was calculated from the lethal rate (50%) within two days after administration of the test compound.

The nature of data set [5]: Acute toxicity, rat (Table 5). The settings on record: in vivo, oral, lethality within two days, read-out: LD50 per os, Rat. The method, then:
as §1

Data set [6] concerns serum cholesterol level. In words: Hypolipidemic action: Triton hyperlipidemia in male mice (Table 3). The settings on record: intraperitoneal, 18 hours after Triton. In kind it is in vivo, dd-strain male mice. The method, then: iii. Triton hyperlipidemia in male mice (Table 3) Each group was composed of eight dd-strain male mice weighing 20-25 g. Immediately after intraperitoneal administration of the test compound to the animals, Triton WR-1339 was intraveniously given. Eighteen hours after Triton administration, the serum cholesterol level was measured and compared with that of the control group treated in the same way.

Usually LD50 stands for the dose at which mortality reaches 50%.

`CC(=O)Oc1ccccc1C(=O)O` [Acetylsalicylic Acid, reference compound]: the “Prolongation Rate (%) of the Bleeding Time” value (“Prolongation Rate (%)” below) in data set [1] (12.5 mg/kg/day) came to 22%; in data set [1] (25 mg/kg/day) it was 65%; in data set [1] (50 mg/kg/day), 268%.
With `CCOc1oc(-c2ccc(Cl)cc2)nc1CC(=O)OCc1cccnc1` [B, 3-pyridylmethyl 2-p-chlorophenyl-5-ethoxy-4-oxazoleacetate], the entries for the “Lowering Rate (%) of Serum Cholesterol Level” value (in data set [2]; in the data set with serum cholesterol level [3] (100 mg/kg/day)) were 22% and 43%, respectively. The “Lowering Rate (%) of Serum Triglyceride Level” value in data set [2] was 41%. For the same compound, the LD50 at 48 h in data set [4] and in data set [5] was greater than 4000 mg/kg throughout.
As for `CCOC(=O)Cc1nc(-c2ccc(Cl)c(Cl)c2)oc1OCC` [C, ethyl 2-(3,4-dichlorophenyl)-5-ethoxy-4-oxazoleacetate], the “Lowering Rate (%) of Serum Cholesterol Level” value in the data set with serum cholesterol level [6] (25 mg/kg/day) turned out to be 18%; in the data set with serum cholesterol level [6] (100 mg/kg/day), 35%. Moreover, the LD50 at 48 h in data set [4] was 2000 mg/kg; in data set [5], greater than 4000 mg/kg.
On to `CCOC(=O)C(C)(C)Oc1ccc(Cl)cc1` [Clofibrate, reference compound], for which the “Lowering Rate (%) of Serum Cholesterol Level” value in data set [2] is on record as 31%; in the data set with serum cholesterol level [3] (50 mg/kg/day), 0%; in the data set on serum cholesterol level [3] (100 mg/kg/day) it was 16%; with serum cholesterol level [6] (100 mg/kg/day), 10%. Also, the “Lowering Rate (%) of Serum Triglyceride Level” value in data set [2] stood at 35%. Also, the “Prolongation Rate (%)” value in data set [1] (100 mg/kg/day) was 38%. Further, the values for the LD50 at 48 h in data set [4] and in data set [5] were 1500 mg/kg and 2300 mg/kg, respectively.
`CCOC(=O)Cc1nc(-c2ccc(Cl)cc2)oc1OCC` [Compound A, ethyl 2-p-chlorophenyl-5-ethoxy-4-oxazoleacetate]: the “Lowering Rate (%) of Serum Cholesterol Level” value in data set [2] was 25%; with serum cholesterol level [3] (50 mg/kg/day), 21%; in the data set on serum cholesterol level [3] (100 mg/kg/day), 41%; in the data set with serum cholesterol level [6] (50 mg/kg/day) it was 26%; with serum cholesterol level [6] (100 mg/kg/day), 32%. In addition, the “Lowering Rate (%) of Serum Triglyceride Level” value in data set [2] was found to be 45%. In addition, the results for the LD50 at 48 h in data set [4] and in data set [5] were 4000 mg/kg and greater than 4000 mg/kg, respectively.
For the compound `CCOc1oc(-c2ccncc2)nc1CCC(=O)O` [D, 3-[2-(4-pyridyl)-5-ethoxy-4-oxazole]propionic acid], the “Prolongation Rate (%)” value was determined as 107% in data set [1] (12.5 mg/kg/day), 209% in data set [1] (25 mg/kg/day), 321% in data set [1] (50 mg/kg/day) and 439% in data set [1] (100 mg/kg/day). Further, the LD50 at 48 h in data set [4] and in data set [5] was greater than 2000 mg/kg in each case.
